Data as given in ChEMBL document CHEMBL1201862, “PubChem BioAssay data set” (2004).
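Cells were grown in 96-well plates and exposed to each compound for 48 hours at five concentrations; endpoints were interpolated linearly between bracketing concentrations, or set to the highest concentration if not reached. GI50 is the concentration that inhibits growth by half.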 The source made the active and inactive calls. Rule as the data show it: active = GI50 up to about 1.1 µM and inactive = higher.

Experiments:
Test in all cases: NCI-60 cell line screen, 48 h
ACHN = test system: ACHN
SW-620 = test system: SW-620
K562 = test system: K562
SN12C = test system: SN12C
HOP-92 = test system: HOP-92
IGROV-1 = test system: IGROV-1
Malme-3M = test system: Malme-3M
A498 = test system: A498
TK-10 = test system: TK-10
SF-295 = test system: SF-295
HOP-62 = test system: HOP-62
SK-MEL-5 = test system: SK-MEL-5
SF-268 = test system: SF-268
OVCAR-8 = test system: OVCAR-8
HL-60 = test system: HL-60
HCC 2998 = test system: HCC 2998
UACC-62 = test system: UACC-62
HT-29 = test system: HT-29
SNB-78 = test system: SNB-78
SK-MEL-28 = test system: SK-MEL-28
MOLT-4 = test system: MOLT-4
SK-MEL-2 = test system: SK-MEL-2
NCI-H23 = test system: NCI-H23
OVCAR-3 = test system: OVCAR-3
NCI-H460 = test system: NCI-H460
OVCAR-5 = test system: OVCAR-5
U-251 = test system: U-251
DMS-114 = test system: DMS-114
HOP-18 = test system: HOP-18
SF-539 = test system: SF-539
CAKI-1 = test system: CAKI-1
OVCAR-4 = test system: OVCAR-4
UO-31 = test system: UO-31
SR = test system: SR
KM12 = test system: KM12
DLD-1 = test system: DLD-1
M19-MEL = test system: M19-MEL
M14 = test system: M14
RXF 393 = test system: RXF 393
UACC-257 = test system: UACC-257
A549 = test system: A549
CCRF-CEM = test system: CCRF-CEM
HCT-116 = test system: HCT-116
HCT-15 = test system: HCT-15
786-0 = test system: 786-0
KM-20L2 = test system: KM-20L2
NCI-H522 = test system: NCI-H522
EKVX = test system: EKVX
LXFL 529 = test system: LXFL 529
SNB-75 = test system: SNB-75
LOX IMVI = test system: LOX IMVI
RPMI-8226 = test system: RPMI-8226
COLO 205 = test system: COLO 205
NCI-H226 = test system: NCI-H226
SNB-19 = test system: SNB-19
XF498 = test system: XF498
SK-OV-3 = test system: SK-OV-3
DMS-273 = test system: DMS-273

CCCC/C=C1\CCC(C)(CN(C)C)C1=O (stereo unspecified)
GI50 (ACHN): > 100 µM (inactive) | GI50 (SW-620): > 100 µM (inactive) | GI50 (K562): > 100 µM (inactive) | GI50 (SN12C): > 100 µM (inactive) | GI50 (HOP-92): > 100 µM (inactive) | GI50 (IGROV-1): > 100 µM (inactive) | GI50 (Malme-3M): > 100 µM (inactive) | GI50 (A498): > 100 µM (inactive) | GI50 (TK-10): > 100 µM (inactive) | GI50 (SF-295): > 100 µM (inactive) | GI50 (HOP-62): > 100 µM (inactive) | GI50 (SK-MEL-5): > 100 µM (inactive) | GI50 (SF-268): > 100 µM (inactive) | GI50 (OVCAR-8): > 100 µM (inactive) | GI50 (HL-60): 55.5 µM (inactive) | GI50 (HCC 2998): > 100 µM (inactive) | GI50 (UACC-62): > 100 µM (inactive) | GI50 (HT-29): > 100 µM (inactive) | GI50 (SNB-78): > 100 µM (inactive) | GI50 (SK-MEL-28): > 100 µM (inactive) | GI50 (MOLT-4): > 100 µM (inactive) | GI50 (SK-MEL-2): > 100 µM (inactive) | GI50 (NCI-H23): > 100 µM (inactive) | GI50 (OVCAR-3): > 100 µM (inactive) | GI50 (NCI-H460): > 100 µM (inactive) | GI50 (OVCAR-5): > 100 µM (inactive) | GI50 (U-251): > 100 µM (inactive) | GI50 (DMS-114): > 100 µM (inactive) | GI50 (HOP-18): > 100 µM (inactive) | GI50 (SF-539): > 100 µM (inactive) | GI50 (CAKI-1): > 100 µM (inactive) | GI50 (OVCAR-4): > 100 µM (inactive) | GI50 (UO-31): > 100 µM (inactive) | GI50 (SR): > 100 µM (inactive) | GI50 (KM12): > 100 µM (inactive) | GI50 (DLD-1): > 10 µM (inactive) | GI50 (M19-MEL): 15.6 µM (inactive) | GI50 (M14): > 100 µM (inactive) | GI50 (RXF 393): 46.5 µM (inactive) | GI50 (UACC-257): > 100 µM (inactive) | GI50 (A549): > 100 µM (inactive) | GI50 (CCRF-CEM): > 100 µM (inactive) | GI50 (HCT-116): > 100 µM (inactive) | GI50 (HCT-15): > 100 µM | GI50 (786-0): > 100 µM (inactive) | GI50 (KM-20L2): > 100 µM (inactive) | GI50 (NCI-H522): 28.9 µM (inactive) | GI50 (EKVX): > 100 µM (inactive) | GI50 (LXFL 529): > 100 µM (inactive)

C/C(=N\O)C(CN1CCCCC1)C(c1ccccc1)c1c(O)c2ccccc2oc1=O (stereo unspecified)
GI50 (SNB-75): > 100 µM (inactive) | GI50 (LOX IMVI): > 100 µM (inactive) | GI50 (ACHN): > 100 µM (inactive) | GI50 (RPMI-8226): > 100 µM (inactive) | GI50 (SW-620): > 100 µM (inactive) | GI50 (COLO 205): > 100 µM (inactive) | GI50 (NCI-H226): > 100 µM (inactive) | GI50 (K562): > 10 µM (inactive) | GI50 (SN12C): > 100 µM (inactive) | GI50 (HOP-92): 62.1 µM (inactive) | GI50 (SNB-19): > 100 µM (inactive) | GI50 (IGROV-1): > 100 µM (inactive) | GI50 (Malme-3M): > 100 µM (inactive) | GI50 (A498): > 100 µM (inactive) | GI50 (TK-10): > 100 µM (inactive) | GI50 (SF-295): 54.8 µM (inactive) | GI50 (HOP-62): > 100 µM (inactive) | GI50 (SK-MEL-5): > 100 µM (inactive) | GI50 (SF-268): > 100 µM (inactive) | GI50 (OVCAR-8): > 100 µM (inactive) | GI50 (HL-60): > 10 µM (inactive) | GI50 (HCC 2998): > 100 µM (inactive) | GI50 (XF498): > 100 µM (inactive) | GI50 (UACC-62): > 100 µM (inactive) | GI50 (HT-29): > 100 µM (inactive) | GI50 (SK-MEL-28): > 100 µM (inactive) | GI50 (SK-MEL-2): > 100 µM (inactive) | GI50 (NCI-H23): > 100 µM (inactive) | GI50 (OVCAR-3): > 100 µM (inactive) | GI50 (OVCAR-5): > 100 µM (inactive) | GI50 (DMS-114): > 100 µM (inactive) | GI50 (SF-539): > 100 µM (inactive) | GI50 (CAKI-1): > 100 µM (inactive) | GI50 (OVCAR-4): > 100 µM (inactive) | GI50 (DLD-1): > 100 µM (inactive) | GI50 (M19-MEL): > 100 µM (inactive) | GI50 (M14): > 100 µM (inactive) | GI50 (RXF 393): > 100 µM (inactive) | GI50 (UACC-257): > 100 µM (inactive) | GI50 (A549): > 100 µM (inactive) | GI50 (CCRF-CEM): > 10 µM (inactive) | GI50 (HCT-116): > 100 µM (inactive) | GI50 (SK-OV-3): > 100 µM (inactive) | GI50 (786-0): > 100 µM (inactive) | GI50 (KM-20L2): > 100 µM (inactive) | GI50 (NCI-H522): > 100 µM (inactive) | GI50 (EKVX): > 100 µM (inactive) | GI50 (LXFL 529): > 100 µM (inactive)

Cc1cc(/C=C/c2cc[n+](C)c3ccccc23)c(O)c2ncccc12
GI50 (SNB-75): 5.16 µM (inactive) | GI50 (LOX IMVI): 1.35 µM (inactive) | GI50 (ACHN): 4.22 µM (inactive) | GI50 (RPMI-8226): 0.71 µM (active) | GI50 (SW-620): 0.619 µM (active) | GI50 (COLO 205): 5.68 µM (inactive) | GI50 (NCI-H226): 1.87 µM (inactive) | GI50 (K562): 2.46 µM (inactive) | GI50 (SN12C): 1.09 µM (active) | GI50 (HOP-92): 2.99 µM (inactive) | GI50 (SNB-19): 4.55 µM (inactive) | GI50 (IGROV-1): 1.93 µM (inactive) | GI50 (Malme-3M): 2.8 µM (inactive) | GI50 (A498): 4.19 µM (inactive) | GI50 (TK-10): 4.28 µM (inactive) | GI50 (SF-295): 0.991 µM (active) | GI50 (HOP-62): 1.87 µM (inactive) | GI50 (SK-MEL-5): 1.02 µM (active) | GI50 (SF-268): 0.973 µM (active) | GI50 (OVCAR-8): 0.411 µM (active) | GI50 (HL-60): 0.625 µM (active) | GI50 (HCC 2998): 1.06 µM (active) | GI50 (UACC-62): 1.99 µM (inactive) | GI50 (HT-29): 3.76 µM (inactive) | GI50 (SNB-78): 4.63 µM (inactive) | GI50 (SK-MEL-28): 2.16 µM (inactive) | GI50 (MOLT-4): 0.646 µM (active) | GI50 (SK-MEL-2): 2.67 µM (inactive) | GI50 (NCI-H23): 1.7 µM (inactive) | GI50 (OVCAR-3): 0.288 µM (active) | GI50 (NCI-H460): 0.597 µM (active) | GI50 (OVCAR-5): 3.27 µM (inactive) | GI50 (U-251): 1.23 µM (inactive) | GI50 (DMS-114): 0.214 µM (active) | GI50 (HOP-18): 1.36 µM (inactive) | GI50 (SF-539): 0.426 µM (active) | GI50 (CAKI-1): 10.1 µM (inactive) | GI50 (OVCAR-4): 7.94 µM (inactive) | GI50 (UO-31): 6.67 µM (inactive) | GI50 (SR): 0.379 µM (active) | GI50 (KM12): 2.19 µM (inactive) | GI50 (DMS-273): 0.558 µM (active) | GI50 (DLD-1): 3.32 µM (inactive) | GI50 (M19-MEL): 1.42 µM (inactive) | GI50 (M14): 1.44 µM (inactive) | GI50 (RXF 393): 2.38 µM (inactive) | GI50 (UACC-257): 2.97 µM (inactive) | GI50 (A549): 2.07 µM (inactive) | GI50 (CCRF-CEM): 0.181 µM (active) | GI50 (HCT-116): 0.966 µM (active) | GI50 (HCT-15): 4.65 µM | GI50 (SK-OV-3): 2.4 µM (inactive) | GI50 (786-0): 0.916 µM (active) | GI50 (KM-20L2): 5.68 µM (inactive) | GI50 (NCI-H522): 1.77 µM (inactive) | GI50 (EKVX): 3.28 µM (inactive) | GI50 (LXFL 529): 0.156 µM (active)

COc1ccc(CNc2cc(OC)cc(OC)c2)cc1
GI50 (SNB-75): > 42 µM (inactive) | GI50 (ACHN): > 100 µM (inactive) | GI50 (RPMI-8226): 58.9 µM (inactive) | GI50 (K562): 22.4 µM (inactive) | GI50 (HOP-92): 65.5 µM (inactive) | GI50 (Malme-3M): > 72.8 µM (inactive) | GI50 (TK-10): > 100 µM (inactive) | GI50 (SK-MEL-5): 60.5 µM (inactive) | GI50 (SF-268): > 62.1 µM (inactive) | GI50 (OVCAR-8): > 69.8 µM (inactive) | GI50 (HL-60): > 46.5 µM (inactive) | GI50 (HCC 2998): > 100 µM (inactive) | GI50 (XF498): > 100 µM (inactive) | GI50 (UACC-62): 87.7 µM (inactive) | GI50 (SNB-78): 38.1 µM (inactive) | GI50 (SK-MEL-28): 44.4 µM (inactive) | GI50 (MOLT-4): > 81.8 µM (inactive) | GI50 (SK-MEL-2): > 85.7 µM (inactive) | GI50 (NCI-H23): > 80.2 µM (inactive) | GI50 (DMS-114): 49 µM (inactive) | GI50 (OVCAR-4): 77.1 µM (inactive) | GI50 (UO-31): 49.2 µM (inactive) | GI50 (KM12): 84.3 µM (inactive) | GI50 (M19-MEL): > 100 µM (inactive) | GI50 (RXF 393): > 68.4 µM (inactive) | GI50 (UACC-257): > 91.8 µM (inactive) | GI50 (A549): > 100 µM (inactive) | GI50 (SK-OV-3): > 80 µM (inactive) | GI50 (786-0): > 52.2 µM (inactive) | GI50 (NCI-H522): 35.8 µM (inactive) | GI50 (EKVX): > 76.6 µM (inactive) | GI50 (LXFL 529): 85.7 µM (inactive)
